The text below walks through data of patent US20230365530A1, “QUINAZOLINE-2,4-DIAMINE DERIVATIVE AND PHARMACEUTICAL COMPOSITION FOR PREVENTING OR TREATING CANCER COMPRISING SAME AS ACTIVE INGREDIENT” (THE ASEAN FOUNDATION, priority 2020, published 2023).

EHMT2 (Euchromatic histone-lysine N-methyltransferase 2), sequence (Q96KQ7 whole entry): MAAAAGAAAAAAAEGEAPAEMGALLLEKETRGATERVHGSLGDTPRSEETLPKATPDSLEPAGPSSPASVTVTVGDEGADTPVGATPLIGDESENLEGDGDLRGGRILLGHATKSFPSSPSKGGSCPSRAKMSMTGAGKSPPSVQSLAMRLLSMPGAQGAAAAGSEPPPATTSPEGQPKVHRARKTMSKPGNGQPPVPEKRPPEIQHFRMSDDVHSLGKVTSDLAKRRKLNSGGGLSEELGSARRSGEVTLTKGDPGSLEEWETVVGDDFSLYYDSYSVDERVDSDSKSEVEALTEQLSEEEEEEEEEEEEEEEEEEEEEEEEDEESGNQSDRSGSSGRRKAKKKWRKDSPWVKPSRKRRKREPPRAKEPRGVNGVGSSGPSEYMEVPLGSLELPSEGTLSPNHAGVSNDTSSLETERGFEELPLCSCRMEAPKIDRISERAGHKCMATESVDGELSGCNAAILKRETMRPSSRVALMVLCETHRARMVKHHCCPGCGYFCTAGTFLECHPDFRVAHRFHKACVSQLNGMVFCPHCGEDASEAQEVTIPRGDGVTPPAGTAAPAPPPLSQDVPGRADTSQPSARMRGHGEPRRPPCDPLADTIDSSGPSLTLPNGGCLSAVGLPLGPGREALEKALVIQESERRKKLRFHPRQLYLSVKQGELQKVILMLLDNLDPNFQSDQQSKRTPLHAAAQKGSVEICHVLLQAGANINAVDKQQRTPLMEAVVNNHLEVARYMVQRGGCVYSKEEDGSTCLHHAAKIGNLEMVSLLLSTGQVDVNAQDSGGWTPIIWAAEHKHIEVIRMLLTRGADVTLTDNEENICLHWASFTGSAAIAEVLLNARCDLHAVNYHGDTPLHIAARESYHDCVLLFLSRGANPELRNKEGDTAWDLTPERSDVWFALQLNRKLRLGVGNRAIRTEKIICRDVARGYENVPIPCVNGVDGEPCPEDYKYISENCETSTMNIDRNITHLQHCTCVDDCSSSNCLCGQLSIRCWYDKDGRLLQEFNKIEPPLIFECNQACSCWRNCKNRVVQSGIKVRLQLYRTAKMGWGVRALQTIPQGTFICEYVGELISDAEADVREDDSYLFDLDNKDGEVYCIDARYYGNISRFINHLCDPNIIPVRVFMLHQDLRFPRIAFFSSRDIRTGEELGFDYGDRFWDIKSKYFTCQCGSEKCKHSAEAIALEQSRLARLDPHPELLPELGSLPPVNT

For the first assay, the target named is EHMT2 (Euchromatic histone-lysine N-methyltransferase 2) (Homo sapiens (Human), UniProt Q96KQ7). Description: EHMT2 enzyme inhibition, LANCE TR-FRET. The format is biochemical. The settings on record: histone H3 peptide, 1 hour at room temperature. As to the method:
In order to analyze the enzyme inhibitory efficacy of the compounds of Examples 1 to 89, EHMT2 (Euchromatic histone-lysine N-methyltransferase 2) enzyme activity was measured using the LANCE TR-FRET™ analysis method of Perkin Elmer. When the EHMT2 enzyme is activated, the 9th lysine residue of the biotinylated-histone peptide is methylated and the EU-conjugated antibody is combined to the methylated histone peptide. Then, when the complex is irradiated with light of excitation wavelength, the complex emits light having a wavelength of 665 nm through FRET phenomenon. Accordingly, fluorescence was measured, and IC50 values were calculated through a software to evaluate the EHMT2 enzyme activity inhibitory effect of the compounds of Examples 1 to 89.
Specific experimental methods are as follows. First, the compounds of Examples 1 to 89 of 1 nM to 100 μM (4× conc.) were put into a 384 well plate (25 μL/well), and 2 μM EEMT2/G9a enzyme (4× conc.) was put into the 384 well plate (25 μL/well). The plate was then centrifuged at 1,500 rpm for 5 seconds after sealing the plate with plate sealing foil. After incubating the EHMT2/G9a enzyme, SAM, and the compounds of Examples above at room temperature for 10 minutes, 2 μM histone H3 peptide (4× conc.) was added to the 384-well plate (25 μL/well). After sealing the plate with plate sealing foil and centrifuging at 1,500 rpm for 5 seconds, an enzymatic reaction was performed at room temperature for 1 hour. Upon completion of the enzyme reaction, 5 μL each of 200 nM Ulight™-Streptavidin (4× conc.) and 8 nM Eu-antibody (4× conc.) was added to each well of the plate. The plate was sealed with plate sealing foil, centrifuged at 1,500 rpm for 5 seconds and reacted at room temperature for 1 hour. The signal values were measured with Envision (Ex 320 nm, Em 665 nm), and all background values obtained by reacting without enzyme were deleted from the measured raw data values. Then, the EHMT2 enzyme activity inhibitory effect of the compounds of Examples 1 to 89 was converted into % values, and compared with the EHMT2 activity when treated with 4% DMSO vehicle (=0 nM compound) as 100%.
As to `COc1cc2c(NC3CCN(C(C)C)CC3)nc(N(C)C)nc2cc1C#CCCN(C)C` [Example 14], the IC50 (usually the point on the concentration scale where inhibition reaches its midpoint) is less than 100 nM.

For `CCN1CCC(Nc2nc(N3CCCN(C)CC3)nc3cc(C#CCCN4CCCC4)c(OC)cc23)CC1` [Example 65, N-(1-ethylpiperidine-4-yl)-6-methoxy-2-(4-methyl-1,4-diazepane-1-yl)-7-(4-(pyrrolidine-1-yl)-1-butyne-1-yl) quinazoline-4-amine], the half-maximal inhibitory concentration (IC50) is less than 100 nM.

Regarding `COc1cc2c(NC3CCN(C(C)C)CC3)nc(N3CCCCC3)nc2cc1/C=C/CCN1CCCCC1` [Example 66, (E)-N-(1-isopropylpiperidine-4-yl)-6-methoxy-2-(piperidine-1-yl)-7-(4-(piperidine-1-yl)-1-butene-1-yl)quinazoline-4-amine], the IC50 is less than 100 nM.

Consider `CCCN1CCC(Nc2nc(N3CCCCC3)nc3cc(C#CCCN4CCCC4)c(OC)cc23)CC1` [Example 67, 6-methoxy-2-(piperidine-1-yl)-N-(1-propylpiperidine-4-yl)-7-(4-(pyrrolidine-1-yl)-1-butyne-1-yl)quinazoline-4-amine], for which the IC50 was less than 100 nM.

`CCCN1CCC(Nc2nc(N3CCCC3)nc3cc(C#CCCN4CCCC4)c(OC)cc23)CC1` [Example 68, 6-methoxy-N-(1-propylpiperidine-4-yl)-2-(pyrrolidine-1-yl)-7-(4-(pyrrolidine-1-yl)-1-butyne-1-yl)quinazoline-4-amine] registered an IC50 of less than 100 nM.

Regarding `COc1cc2c(NC3CCN(CCO)CC3)nc(N3CCCCC3)nc2cc1C#CCCN1CCCC1` [Example 69, 2-(4-((6-methoxy-2-(piperidine-1-yl)-7-(4-(pyrrolidine-1-yl)-1-butyne-1-yl)quinazoline-4-yl)amino)piperidine-1-yl)ethanol], the IC50 was less than 100 nM.

`COc1cc2c(NC3CCN(CCO)CC3)nc(N3CCCC3)nc2cc1C#CCCN1CCCC1` [Example 70, 2-(4-((6-methoxy-2-(pyrrolidine-1-yl)-7-(4-(pyrrolidine-1-yl)-1-butyne-1-yl)quinazoline-4-yl)amino)piperidine-1-yl)ethanol] showed an IC50 of less than 100 nM.

Regarding `COc1cc2c(NCc3cccnc3)nc(N3CCCC3)nc2cc1C#CCCN1CCCC1` [Example 71, 6-methoxy-N-(pyridine-3-ylmethyl)-2-(pyrrolidine-1-yl)-7-(4-(pyrrolidine-1-yl)-1-butyne-1-yl)quinazoline-4-amine], the IC50 fell in the range of 100 to 1000 nM.

Regarding `CCN1CCC(Nc2nc(N3CC[C@H](F)C3)nc3cc(C#CCCN4CCCC4)c(OC)cc23)CC1` [Example 72, (S)-N-(1-ethylpiperidine-4-yl)-2-(3-fluoropyrrolidine-1-yl)-6-methoxy-7-(4-(pyrrolidine-1-yl)-1-butyne-1-yl)quinazoline-4-amine], the IC50 was less than 100 nM.

For `COc1cc2c(NC3CC(C)(C)NC(C)(C)C3)nc(N3CCCC3)nc2cc1C#CCCN1CCCC1` [Example 73, 6-methoxy-2-(pyrrolidine-1-yl)-7-(4-(pyrrolidine-1-yl)-1-butyne-1-yl)-N-(2,2,6,6-tetramethylpiperidine-4-yl)quinazoline-4-amine], the IC50 was less than 100 nM.

The molecule `COc1cc2c(NC3CCN(C4CC4)CC3)nc(N3CC[C@@H](F)C3)nc2cc1C#CCCN1CCCC1` [Example 74, (R)-N-(1-cyclopropylpiperidine-4-yl)-2-(3-fluoropyrrolidine-1-yl)-6-methoxy-7-(4-(pyrrolidine-1-yl)-1-butyne-1-yl)quinazoline-4-amine] returned an IC50 of 100 to 1000 nM.

In turn, `COc1cc2c(NC3CCN(C4CC4)CC3)nc(N3CC[C@H](F)C3)nc2cc1C#CCCN1CCCC1` [Example 75, (S)-N-(1-cyclopropylpiperidine-4-yl)-2-(3-fluoropyrrolidine-1-yl)-6-methoxy-7-(4-(pyrrolidine-1-yl)-1-butyne-1-yl)quinazoline-4-amine] yielded an IC50 of less than 100 nM.

In the case of `COc1cc2c(NC3CCN(C4CC4)CC3)nc(N3CC[C@@H](F)C3)nc2cc1C#CCCN(C)C` [Example 76, (R)-N-(1-cyclopropylpiperidine-4-yl)-7-(4-(dimethylamino)-1-butyne-1-yl)-2-(3-fluoropyrrolidine-1-yl)-6-methoxyquinazoline-4-amine], the IC50 was 1000 to 10000 nM.

`CCN1CCC(Nc2nc(N3CC[C@@H](F)C3)nc3cc(C#CCCN4CCCC4)c(OC)cc23)CC1` [Example 77, (R)-N-(1-ethylpiperidine-4-yl)-2-(3-fluoropyrrolidine-1-yl)-6-methoxy-7-(4-(pyrrolidine-1-yl)-1-butyne-1-yl)quinazoline-4-amine] gave an IC50 of less than 100 nM.

The molecule `CCN1CCC(Nc2nc(N3CCCC3)nc3cc(C#CCCN4CC[C@H](F)C4)c(OC)cc23)CC1` [Example 78, (S)-N-(1-ethylpiperidine-4-yl)-7-(4-(3-fluoropyrrolidine-1-yl)-1-butyne-1-yl)-6-methoxy-2-(pyrrolidine-1-yl)quinazoline-4-amine] showed an IC50 of less than 100 nM.

Consider `COc1cc2c(NCCN(C)C)nc(N3CC[C@H](F)C3)nc2cc1C#CCCN1CCCC1` [Example 79, (S)-N1-(2-(3-fluoropyrrolidine-1-yl)-6-methoxy-7-(4-(pyrrolidine-1-yl)-1-butyne-1-yl)quinazoline-4-yl)-N2,N2-dimethylethane-1,2-diamine], for which the IC50 was in the range of 100 to 1000 nM.

Molecule `COc1cc2c(NCCN(C)C)nc(N3CC[C@@H](F)C3)nc2cc1C#CCCN1CCCC1` [Example 80, (R)-N1-(2-(3-fluoropyrrolidine-1-yl)-6-methoxy-7-(4-(pyrrolidine-1-yl)-1-butyne-1-yl)quinazoline-4-yl)-N2,N2-dimethylethane-1,2-diamine] gave an IC50 of 100 to 1000 nM.

The molecule `CNc1nc(N2CCCC2)nc2cc(C#CCCN3CCCC3)c(OC)cc12` [Example 81, 6-methoxy-N-methyl-2-(pyrrolidine-1-yl)-7-(4-(pyrrolidine-1-yl)-1-butyne-1-yl)quinazoline-4-amine] had an IC50 of 100 to 1000 nM.

For `CCCN1CCC(Nc2nc(N(C)C)nc3cc(C#CCCN4CCCC4)c(OC)cc23)CC1` [Example 83, 6-methoxy-N2,N-dimethyl-N4-(1-propylpiperidine-4-yl)-7-(4-(pyrrolidine-1-yl)-1-butyne-1-yl)quinazoline-2,4-diamine], the IC50 is less than 100 nM.

As for `CCCN1CCC(Nc2nc(N3CC[C@@H](F)C3)nc3cc(C#CCCN4CCCC4)c(OC)cc23)CC1` [Example 84, (R)-2-(3-fluoropyrrolidine-1-yl)-6-methoxy-N-(1-propylpiperidine-4-yl)-7-(4-(pyrrolidine-1-yl)-1-butyne-1-yl)quinazoline-4-amine], the IC50 is less than 100 nM.

As to `COc1cc2c(NC3CCN(C(C)C)CC3)nc(N3CCCC3)nc2cc1/C=C/CCN1CCCC1` [Example 85, (E)-N-(1-isopropylpiperidine-4-yl)-6-methoxy-2-(pyrrolidine-1-yl)-7-(4-(pyrrolidine-1-yl)-1-butene-1-yl)quinazoline-4-amine], the IC50 was less than 100 nM.

With `COc1cc2c(NC3CCN(C(C)C)CC3)nc(N3CCCC3)nc2cc1/C=C/CCN(C)C` [Example 86, (E)-7-(4-(dimethylamino)-1-butene-1-yl)-N-(1-isopropylpiperidine-4-yl)-6-methoxy-2-(pyrrolidine-1-yl)quinazoline-4-amine], the half-inhibitory concentration (IC50) is 100 to 1000 nM.

Regarding `COc1cc2c(NC3CCN(CCO)CC3)nc(N(C)C)nc2cc1C#CCCN1CCCC1` [Example 87, 2-(4-((2-(dimethylamino)-6-methoxy-7-(4-(pyrrolidine-1-yl)-1-butyne-1-yl)quinazoline-4-yl)amino)piperidine-1-yl) ethanol], the IC50 was less than 100 nM.

Molecule `COc1cc2c(NC3CCN(C(C)C)CC3)nc(Nc3cnn(C)c3)nc2cc1C#CCCN1CCCC1` [Example 88, N4-(1-isopropylpiperidine-4-yl)-6-methoxy-N2-(1-methyl-1H-pyrazole-4-yl)-7-(4-(pyrrolidine-1-yl)-1-butyne-1-yl)quinazoline-2,4-diamine] registered an IC50 of 100 to 1000 nM.

On to `COc1cc2c(NC3CCN(CCO)CC3)nc(N3CC[C@@H](F)C3)nc2cc1C#CCCN1CCCC1` [Example 89], for which the IC50 was less than 100 nM.

A further assay concerns pancreatic cancer cell line Miapaca 2. Nature of the assay: Cancer cell growth inhibition test, CellTiter-glo. In kind it is cell-based. The settings on record: Homo sapiens, MIA PaCa-2, Miapaca 2 cells, 72 hours. As to the method:
In order to confirm the effect of reducing cell viability by inhibiting EHMT2 by the compounds of Examples in cells, the effect of inhibiting cancer cell growth was analyzed using CellTiter-glo™ analysis (Promega, cat. G7573) method. Specifically, the amount of ATP in living cells was measured and IC50 values were calculated using software to compare the inhibitory effect of the compounds of Examples on cell viability. First, the pancreatic cancer cell line Miapaca 2 was placed in a 96-well cell culture plate at the density of 1×10^3 cells/well and cultured overnight, and then each well of the plate was treated with 1 nM to 100 μM of the compounds of Examples 1 to 89 at each concentration for 72 hours (The final concentration of DMSO in each well was 0.5% or less). CellTiter-glo 2.0 reagent was mixed with a medium at 20% of the amount of the medium, reacted at room temperature for 10 minutes, and then 80 μL of the mixture was transferred to each well of a 96-well plate, followed by measuring the degree of luminescence.
In general terms: In ATP-based viability assays light output follows the ATP content of the culture.
`COc1cc2c(NC3CCN(C(C)C)CC3)nc(N(C)C)nc2cc1C#CCCN(C)C` [Example 14] returned an IC50 of 338 nM.
